Reference: patent US20250235434A1, “RIFABUTIN ANALOGS FOR THE TREATMENT OF DISEASE” (BIOVERSYS AG, priority 2022, published 2025)
≈ marks a conversion by molar mass, not a printed value. Like-named read-outs stand apart in the source and are kept apart here.

Assays:
Assay type in all cases: cell-based
[1] = test system: M. smegmatis (ATCC 700084); test: MIC against M. smegmatis (resazurin assay); details: Mycolicibacterium smegmatis, ATCC700084, Middlebrook 7H9 + ADC, 90% growth inhibition, 20 h
M. xenopi (ATCC 19250) = test: MIC against M. xenopi (resazurin assay); details: Mycobacterium xenopi, ATCC19250, 168 h, Middlebrook 7H9 + ADC, 90% growth inhibition, 7 days
[2] = test system: M. abscessus (ATCC 19977); test: MIC by broth microdilution against M. abscessus; details: Mycobacteroides abscessus
M. kansasii (ATCC 12478) = test: MIC against M. kansasii (resazurin assay); details: Mycobacterium kansasii, ATCC12478, 168 h, Middlebrook 7H9 + ADC, 90% growth inhibition, 7 days
[3] = test system: S. aureus (UAMS-1625 strain); test: MIC by broth microdilution against S. aureus; details: Staphylococcus aureus, 20 h, read-out: MIC S. aureus
M. avium (ATCC 25291) = test: MIC against M. avium (resazurin assay); details: Mycobacterium avium, ATCC25291, 168 h, Middlebrook 7H9 + ADC, 90% growth inhibition, 7 days
[4] = test system: M. tuberculosis H37Rv (ATCC 27294); test: microbe, parasite or virus in culture; details: Mycobacterium tuberculosis, 120 h
[5] = test system: A. baumannii (HUMC1 strain); test: MIC by broth microdilution against A. baumannii; details: Acinetobacter baumannii, RPMI medium supplemented with 10% FCS, 35° C. for 20 hours, visual reading
[6] = ATCC19977, 20 h, ATCC 19977, Middlebrook 7H9 broth with ADC supplement, visual reading, read-out: MIC M. abscessus

| SMILES | MIC [1] | MIC (M. xenopi (ATCC 19250)) | MIC [2, 6] | MIC (M. kansasii (ATCC 12478)) | MIC [3] | MIC (M. avium (ATCC 25291)) | MIC [4] | MIC [5] | MIC ([2]; ATCC19977, tested M. abscessus strains, read-out: MIC value on M. abscessus) | MIC ([2]; ATCC19977, 20 h, read-out: MIC M. abscessus) |
| --- | --- | --- | --- | --- | --- | --- | --- | --- | --- | --- |
| CO[C@H]1/C=C/O[C@@]2(C)Oc3c(C)c(O)c4c(c3C2=O)C2=NC3(CCN(CC(C)C)CC3)NC2=C(NC(=O)/C(C)=C\C=C\[C@H](C)[C@H](O)[C@@H](C)[C@@H](O)[C@@H](C)[C@H](OC(=O)CN2CCC(Oc3ccccc3)CC2)[C@@H]1C)C4=O [Compound 25] | 0.1 mg/L | 0.02 mg/L | 1 mg/L (≈ 0.978 µM) | 0.02 mg/L | 1 mg/L (≈ 0.978 µM) | 0.8 mg/L | 0.008 mg/L (≈ 0.00783 µM) | 0.06 mg/L (≈ 0.0587 µM) |  |  |
| CO[C@H]1/C=C/O[C@@]2(C)Oc3c(C)c(O)c4c(c3C2=O)C2=NC3(CCN(CC(C)C)CC3)NC2=C(NC(=O)/C(C)=C\C=C\[C@H](C)[C@H](O)[C@@H](C)[C@@H](O)[C@@H](C)[C@H](OC(=O)CNC2CCN(C)CC2)[C@@H]1C)C4=O [Compound 2] | 0.03 mg/L | 0.08 mg/L | 2 mg/L (≈ 2.09 µM) | 0.02 mg/L | 0.06 mg/L (≈ 0.0626 µM) | 1.2 mg/L | 0.02 mg/L (≈ 0.0209 µM) | ≤ 0.002 mg/L |  |  |
| CO[C@H]1/C=C/O[C@@]2(C)Oc3c(C)c(O)c4c(c3C2=O)C2=NC3(CCN(CC(C)C)CC3)NC2=C(NC(=O)/C(C)=C\C=C\[C@H](C)[C@H](O)[C@@H](C)[C@@H](O)[C@@H](C)[C@H](OC(C)=O)[C@@H]1C)C4=O [Rifabutin] | 0.14 mg/L | 0.01 mg/L | 8 mg/L (≈ 9.44 µM) | 0.001 mg/L | 0.016 mg/L (≈ 0.0189 µM) | 0.15 mg/L | 0.0003 mg/L (≈ 0.000354 µM) | ≤ 0.002 mg/L | 8 mg/L (≈ 9.44 µM) |  |
| CO[C@H]1/C=C/O[C@@]2(C)Oc3c(C)c(O)c4c(c3C2=O)C2=NC3(CCN(CC(C)C)CC3)NC2=C(NC(=O)/C(C)=C\C=C\[C@H](C)[C@H](O)[C@@H](C)[C@@H](O)[C@@H](C)[C@H](OC(=O)CN2CCC(n3c(=O)[nH]c5ccccc53)CC2)[C@@H]1C)C4=O [Compound 18] | 0.09 mg/L | 0.01 mg/L | 0.5 mg/L (≈ 0.471 µM) | 0.01 mg/L | 0.5 mg/L (≈ 0.471 µM) | 1.3 mg/L | 0.002 mg/L (≈ 0.00188 µM) | 0.03 mg/L (≈ 0.0282 µM) |  |  |
| CO[C@H]1/C=C/O[C@@]2(C)Oc3c(C)c(O)c4c(c3C2=O)C2=NC3(CCN(CC(C)C)CC3)NC2=C(NC(=O)/C(C)=C\C=C\[C@H](C)[C@H](O)[C@@H](C)[C@@H](O)[C@@H](C)[C@H](OC(=O)CNCCCN(C)C)[C@@H]1C)C4=O [Compound 12] | 0.03 mg/L | 0.01 mg/L | 1 mg/L (≈ 1.06 µM) | 0.0055 mg/L | 0.03 mg/L (≈ 0.0317 µM) | 1.4 mg/L | 0.003 mg/L (≈ 0.00317 µM) | ≤ 0.002 mg/L |  |  |
| CO[C@H]1/C=C/O[C@@]2(C)Oc3c(C)c(O)c4c(c3C2=O)C2=NC3(CCN(CC(C)C)CC3)NC2=C(NC(=O)/C(C)=C\C=C\[C@H](C)[C@H](O)[C@@H](C)[C@@H](O)[C@@H](C)[C@H](OC(=O)CN2CCc3[nH]c5ccccc5c3C2)[C@@H]1C)C4=O [Compound 33] | 0.1 mg/L | 0.7 mg/L | 0.5 mg/L (≈ 0.492 µM) | 0.01 mg/L | 1 mg/L (≈ 0.983 µM) | 0.3 mg/L | 0.008 mg/L (≈ 0.00786 µM) | 0.125 mg/L (≈ 0.123 µM) |  |  |
| CO[C@H]1/C=C/O[C@@]2(C)Oc3c(C)c(O)c4c(c3C2=O)C2=NC3(CCN(CC(C)C)CC3)NC2=C(NC(=O)/C(C)=C\C=C\[C@H](C)[C@H](O)[C@@H](C)[C@@H](O)[C@@H](C)[C@H](OC(=O)CN2CCC3C(CCCN3Cc3ccccc3)C2)[C@@H]1C)C4=O (stereo partly drawn) [Compound 28] | 0.1 mg/L | 0.03 mg/L |  | 0.01 mg/L | 0.125 mg/L (≈ 0.116 µM) | 3.9 mg/L | 0.003 mg/L (≈ 0.00279 µM) | 0.016 mg/L (≈ 0.0149 µM) |  | 0.125 mg/L (≈ 0.116 µM) |
